Reference: paper PMC6222696, “Inhibition of UGT2B7 Enzyme Activity in Human and Rat Liver Microsomes by Herbal Constituents” (Molecules : A Journal of Synthetic Chemistry and Natural …, 2018)
Values joined by “and” are separate entries in the source; they are usually repeats but may differ in a detail not shown here. Equal values may be shown once. Read-outs that look alike come from different tables or passages of the source.

How the values were obtained:
[1] = humans, cited from earlier work
[2] = rats, cited from earlier work
UGT2B7 [3] = target: T1, UGT2B7 (Homo sapiens, UniProt P16662); assay: in vitro; settings: HLM; for microsomal CLint: human liver microsomes, pH 7.4, CLint, Vmax/Km; for Km at 120 min: pH 7.4, Km, mean ± SD
T1 sequence (P16662 24-529): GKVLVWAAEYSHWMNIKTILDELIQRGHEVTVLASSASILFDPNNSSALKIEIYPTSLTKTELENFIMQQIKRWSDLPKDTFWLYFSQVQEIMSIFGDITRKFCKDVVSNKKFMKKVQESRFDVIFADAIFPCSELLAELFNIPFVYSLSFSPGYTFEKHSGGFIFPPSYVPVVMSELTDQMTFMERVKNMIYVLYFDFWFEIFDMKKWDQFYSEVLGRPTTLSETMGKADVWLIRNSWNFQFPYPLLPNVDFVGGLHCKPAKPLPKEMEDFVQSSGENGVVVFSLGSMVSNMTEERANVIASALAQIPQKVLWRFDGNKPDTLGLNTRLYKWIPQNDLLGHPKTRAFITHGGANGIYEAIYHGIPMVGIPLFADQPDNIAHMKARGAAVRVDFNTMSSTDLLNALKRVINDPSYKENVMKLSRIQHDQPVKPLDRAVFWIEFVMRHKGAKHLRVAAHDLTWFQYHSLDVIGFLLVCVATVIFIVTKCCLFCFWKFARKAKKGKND
Procedure: An incubation mixture in a total volume of 200 µL contained 100 mM Tris-HCl buffer at pH 7.4, 5 mM MgCl2, microsomal protein (0.2 mg/mL for HLM assay and 2 mg/mL for RLM assay) and 0.1 mg/mg protein of Brij58 was kept in ice for 10 min. […] The incubation volume was made up to 200 µL with distilled water in a 1.5 mL polypropylene microcentrifuge tube. After pre-incubation at 37 °C for 10 min in a shaking water bath, a reaction was started by the addition of 5 mM UDPGA and was further incubated (120 min for HLM and 90 min for RLM). […] The sample was allowed for protein precipitation on ice for 15 min, then vortexed shortly, and centrifuged at 15,000 rpm for 10 min at 4 °C. Supernatant was transferred into HPLC vials for HPLC analysis.
Once the initial velocity conditions had been established, the ZDV concentrations were varied to generate a saturation curve for determination of Michaelis constant (Km) and maximal velocity of reaction (Vmax) values of ZDV glucuronidation in HLM and RLM. The experiments were conducted in the absence and presence of BSA. Under optimized conditions, substrate concentrations used in incubation assay were varied from 0–5 mM of ZDV for HLM assay and 0–30 mM of ZDV for RLM assay. All assays were performed in triplicates (n = 3).
(§1) The ZDVG concentration formed was quantified using the calibration curve of ZDVG. Final UGT2B7 specific activity value was expressed in pmol/min/mg protein. […] Km and Vmax were determined using the same software under the enzyme-kinetic inhibition (substrate inhibition) model.

UGT2B7 [4] = assay: ZDV glucuronidation kinetics in RLM; settings: for Km at 90 min / microsomal CLint: rat; for Km at 90 min: pH 7.4, Km; for microsomal CLint: rat liver microsomes (pooled), pH 7.4, CLint, Vmax/Km
Procedure: (§2) An incubation mixture in a total volume of 200 µL contained 100 mM Tris-HCl buffer at pH 7.4, 5 mM MgCl2, microsomal protein (0.2 mg/mL for HLM assay and 2 mg/mL for RLM assay) and 0.1 mg/mg protein of Brij58 was kept in ice for 10 min. […] The incubation volume was made up to 200 µL with distilled water in a 1.5 mL polypropylene microcentrifuge tube. After pre-incubation at 37 °C for 10 min in a shaking water bath, a reaction was started by the addition of 5 mM UDPGA and was further incubated (120 min for HLM and 90 min for RLM). Following the incubation, the reaction was terminated by adding 100 µL ice-cold acetonitrile containing 75 µM of 4MUG as the internal standard (IS). The sample was allowed for protein precipitation on ice for 15 min, then vortexed shortly, and centrifuged at 15,000 rpm for 10 min at 4 °C. Supernatant was transferred into HPLC vials for HPLC analysis.
Once the initial velocity conditions had been established, the ZDV concentrations were varied to generate a saturation curve for determination of Michaelis constant (Km) and maximal velocity of reaction (Vmax) values of ZDV glucuronidation in HLM and RLM. The experiments were conducted in the absence and presence of BSA. Under optimized conditions, substrate concentrations used in incubation assay were varied from 0–5 mM of ZDV for HLM assay and 0–30 mM of ZDV for RLM assay. All assays were performed in triplicates (n = 3). The enzyme kinetic parameters (Km and Vmax) were obtained by fitting kinetic models to the experimental data using GraphPad Prism version 5.01 for Windows.
as §1

UGT enzymes = settings: cited from earlier work; for inhibition of UGT enzymes in HLM with 4MU as substrate (in words): 4MU nonspecific UGT substrate
[5] = cited from earlier work; for maximum plasma concentration: humans
UGT nonspecific [6] = tested on: UGT nonspecific; design: method as in ref 19-24 (andrographolide); 35-37 (mitragynine); 26, 27, 29, 31, 38, 39 (quercetin); settings: rats; ref 19-24 (andrographolide); 35-37 (mitragynine); 26, 27, 29, 31, 38, 39 (quercetin); cited from earlier work
UGT2B7 [7] = assay: Inhibition of ZDV glucuronidation in rat liver microsomes (RLM); settings: for IC50 at 90 min: rat
Procedure: The livers were rinsed promptly with ice-cold distilled water followed by ice-cooled 67 mM potassium phosphate buffer (pH 7.4) containing 1.15% (w/v) KCl after removal from the rats. The livers were then homogenized in three volumes of the same buffer using Potter-Elvehjem homogenizer after blotted dry and weighed. After that, the homogenate was centrifuged at 12,500× g for 20 min at 4 °C. The resultant supernatant was further centrifuged at 100,000× g for 60 min at 4 °C to obtain the microsomal pellets. Each pellet obtained was scrapped and reconstituted in 0.3 mL of 67 mM potassium phosphate buffer with 1.15% (w/v) KCl and 20% (v/v) glycerol before homogenizing them together to obtain pooled microsomes. Microsomes were then transferred into several microfuge tubes and stored at −80 °C until used.
as §2
Stock solutions for the herbal constituents were prepared at concentrations of 50 mM by dissolving them in their respective solvents. Andrographolide, arecoline, arecaidine, mangiferin and vanillin were dissolved in distilled water. […] Working solutions were prepared at concentrations of 5 mM in distilled water so that the final organic solvent concentrations in incubations were less than 2% (v/v).
(§3) Thirteen herbal constituents were screened for inhibition of ZDV glucuronidation in HLM and RLM. Screening experiments using three concentrations (1 µM, 10 µM and 100 µM) of each herbal constituent were conducted to screen for the inhibitory potential of the constituent. All incubation assays were performed in triplicate (n = 3).
The ZDVG concentration formed was quantified using the calibration curve of ZDVG. Final UGT2B7 specific activity value was expressed in pmol/min/mg protein.

UGT2B7 [8] = target: T1, UGT2B7; assay: Inhibition of ZDV glucuronidation in human liver microsomes (HLM)
Procedure: as §2
Stock solutions for the herbal constituents were prepared at concentrations of 50 mM by dissolving them in their respective solvents. […] Working solutions were prepared at concentrations of 5 mM in distilled water so that the final organic solvent concentrations in incubations were less than 2% (v/v).
as §3, §1

UGT nonspecific [9] = tested on: UGT nonspecific; design: method as in ref 26-30 (kaempferol); 26, 27, 29, 31, 38, 39 (quercetin); settings: mammalian cells; ref 26-30 (kaempferol); 26, 27, 29, 31, 38, 39 (quercetin); cited from earlier work
UGT1A1 [10] = tested on: UGT1A1; design: method as in ref 26-30 (kaempferol); 35-37 (mitragynine); 26, 27, 29, 31, 38, 39 (quercetin); settings: supersomes; ref 26-30 (kaempferol); 35-37 (mitragynine); 26, 27, 29, 31, 38, 39 (quercetin); cited from earlier work
UGT1A1 [11] = tested on: UGT1A1; design: method as in ref 26-30 (kaempferol); 26, 27, 29, 31, 38, 39 (quercetin); settings: mammalian cells; ref 26-30 (kaempferol); 26, 27, 29, 31, 38, 39 (quercetin); cited from earlier work
UGT1A3 = tested on: UGT1A3; design: method as in ref 19-24 (andrographolide); 26-30 (kaempferol); 32-34 (mangiferin); 26, 27, 29, 31, 38, 39 (quercetin); settings: supersomes; ref 19-24 (andrographolide); 26-30 (kaempferol); 32-34 (mangiferin); 26, 27, 29, 31, 38, 39 (quercetin); cited from earlier work
UGT1A6 [12] = tested on: UGT1A6; design: method as in ref 19-24 (andrographolide); 26-30 (kaempferol); 32-34 (mangiferin); 26, 27, 29, 31, 38, 39 (quercetin); settings: supersomes; ref 19-24 (andrographolide); 26-30 (kaempferol); 32-34 (mangiferin); 26, 27, 29, 31, 38, 39 (quercetin); cited from earlier work
UGT1A9 = settings: HLM, supersomes, cited from earlier work
UGT2B7 [13] = settings: cited from earlier work; for UGT2B7, in vitro study: supersomes; for effect on UGT2B7 in vitro (in words): 19 (curcumin), 37, 70 (ketamine), 19, 20, 22, 23 (andrographolide)
UGT2B10 = tested on: UGT2B10; design: method as in ref 26-30 (kaempferol); 26, 27, 29, 31, 38, 39 (quercetin); settings: supersomes; ref 26-30 (kaempferol); 26, 27, 29, 31, 38, 39 (quercetin); cited from earlier work
UGT1A1 [14] = tested on: UGT1A1; design: method as in PMID 18001207, PMID 19889883, PMID 25008344, PMID 24553666, PMID 29574133; settings: mice; cited from earlier work
UGT2B7 [15] = target: T1, UGT2B7; design: method as in PMID 24631340; settings: non-competitive inhibition; read-out: inhibition constant (Ki) for ZDV glucuronidation in HLM; cited from earlier work
HLM = tested on: HLM; design: method as in PMID 25204783; settings: cited from earlier work
UGT nonspecific [16] = tested on: UGT nonspecific; design: method as in PMID 28479734; settings: system not given; cited from earlier work
[17] = tested on: gluthathione-S-transferases enzyme; design: method as in PMID 15304356; settings: in vitro; cited from earlier work
CYP3A4 = tested on: CYP3A4; design: method as in PMID 15270556; settings: in vitro; cited from earlier work
UGT1A6 [18] = tested on: UGT1A6; design: method as in PMID 18001207, PMID 19889883, PMID 24553666, PMID 22958586, PMID 10660112; settings: mammalian cells; cited from earlier work
UGT2B17 = settings: supersomes; ref 31 (gallic acid); 32-34 (mangiferin); 26, 27, 29, 31, 38, 39 (quercetin); cited from earlier work
UGT2B7 [19] = tested on: UGT2B7; design: method as in PMID 29425147; settings: by inhibiting UGT2B7 activity; cited from earlier work
[20] = IC50 for inhibition of ZDV glucuronidation in HLM, human liver microsomes, ZDV as UGT2B7 probe substrate, 1% (w/v) BSA
[21] = concentration showing 50% inhibition of ZDV glucuronidation in HLM (screening), screening at 1 µM, 10 µM and 100 µM

## Cc1cn([C@H]2C[C@H](N=[N+]=[N-])[C@@H](CO)O2)c(=O)[nH]c1=O [zidovudine, 3′-Azido-3′-deoxythymidine]
[1]; for 70 kg of man
  in vivo systemic clearance: 16.8 mL/min/kg
[1]
  dose excreted as glucuronides: approximately 75%
[2]; for 0.25 kg of rat
  in vivo systemic clearance: 3 mL/min/kg
[2]
  dose excreted as glucuronides: ~10%
UGT2B7 [3]; with 1% BSA
  microsomal CLint: 1.65 µL/min/mg
  Km at 120 min: 0.88 ± 0.05 mM
UGT2B7 [3]; without 1% BSA
  microsomal CLint: 0.32 µL/min/mg
  Km at 120 min: 3.4 ± 0.7 mM
UGT2B7 [4]; with 1% BSA, mean ± SD
  Km at 90 min: 6.77 ± 0.6 mM
UGT2B7 [4]; without 1% BSA, mean ± SD
  Km at 90 min: 8.84 ± 1.19 mM
  Vmax: 770 ± 39.82 pmol/mg/min
UGT2B7 [4]; with 1% BSA
  microsomal CLint: 0.16 µL/min/mg
UGT2B7 [4]; without 1% BSA
  microsomal CLint: 0.09 µL/min/mg

## CCC1CN2CCc3c([nH]c4cccc(OC)c34)C2CC1/C(=C\OC)C(=O)OC (stereo not drawn) [mitragynine]
UGT enzymes; at a concentration of 1 μM
  inhibition of 4MU glucuronidation in HLM: approximately 30 % of control activity
UGT enzymes; read-out: IC50 for 4MU glucuronidation in HLM
  IC50: > 1000 µM
[5]; M. speciosa tea with 11 mg mitragynine for seven days then 23 mg on the eighth day
  maximum plasma concentration: 0.105 µg/mL and 0.26 µM
UGT nonspecific [6]
  UGT nonspecific, in vivo/ex vivo study: UGT nonspecific ↑ (rats)
UGT2B7 [7]; pH 7.4, IC50 for inhibition of ZDV glucuronidation in RLM, rat liver microsomes, ZDV as probe substrate, 1% (w/v) BSA
  IC50 at 90 min: 51.2 ± 5.95 µM
UGT2B7 [7]; pH 7.4, concentration inhibiting ZDV glucuronidation in RLM higher than 50% (screening), screening at 1 µM, 10 µM and 100 µM
  IC50 at 90 min: < 100 µM
UGT2B7 [8]; [20]
  IC50: 8.11 ± 4.48 µM
UGT2B7 [8]; [21]
  IC50: < 100 µM

## O=c1c(O)c(-c2ccc(O)cc2)oc2cc(O)cc(O)c12 [Kaempferol]
UGT nonspecific [9]
  UGT nonspecific, in vitro study: UGT nonspecific ↑ (mammalian cells)
UGT1A1 [10]
  UGT1A1, in vitro study: UGT1A1 ↓ (supersomes)
UGT1A1 [11]
  UGT1A1, in vitro study: UGT1A1 ↑ (mammalian cells)
UGT1A3
  UGT1A3, in vitro study: UGT1A3 ↓ (supersomes)
UGT1A6 [12]
  UGT1A6, in vitro study: UGT1A6 ↓ (supersomes)
UGT1A9; HIM
  UGT1A9, in vitro study: UGT1A9 ↓ (HLM, HIM, supersomes)
UGT2B7 [13]; ref 26-30 (kaempferol), 35-37 (mitragynine)
  UGT2B7, in vitro study: UGT2B7 ↓ (supersomes)
UGT2B10
  UGT2B10, in vitro study: UGT2B10 ↓ (supersomes)
UGT1A1 [14]
  UGT1A1, in vivo/ex vivo study: UGT1A1 ↑ (mice)

## C=C1CC[C@@H]2[C@](C)(CO)[C@H](O)CC[C@@]2(C)[C@@H]1C/C=C1/C(=O)OC[C@H]1O [Andrographolide, andrographolide]
UGT2B7 [15]
  Ki: 6.1 µM
UGT enzymes
  inhibition of UGT enzymes in HLM with 4MU as substrate (in words): weak inhibition
[5]; oral 20 mg of andrographolide four times a day
  maximum plasma concentration: 1.34 µg/mL and 3.8 µM
[5]; ingestion of 32.64 mg of andrographolide three times a day
  maximum concentration in plasma: 32.41 ng/mL and 0.09 µM
[5]; ingestion of 200 mg of andrographolide three times a day
  maximum concentration in plasma: 58.6 ng/mL and 0.17 µM
HLM
  glucuronidation as a substrate in HLM (in words): glucuronidated
UGT2B7 [13]
  effect on UGT2B7 in vitro (in words): inhibit
UGT2B7 [13]; HLM
  UGT2B7, in vitro study: UGT2B7 ↓ (HLM, supersomes)
UGT nonspecific [6]
  UGT nonspecific, in vivo/ex vivo study: UGT nonspecific ↑ (rats)
UGT2B7 [7]; rat liver microsomes
  inhibition of ZDV glucuronidation in RLM (in words): weak inhibition
UGT2B7 [8]; [20]
  IC50: 6.18 ± 1.27 µM
UGT2B7 [8]; [21]
  IC50: < 100 µM

## CNC1(c2ccccc2Cl)CCCCC1=O (stereo not drawn) [ketamine, reference compound]
UGT2B7 [13]
  effect on UGT2B7 in vitro (in words): inhibit

## COc1cc(C=O)ccc1O [Vanillin]
UGT nonspecific [16]
  UGT nonspecific, in vitro study: UGT nonspecific ↓

## C/C1=C\CC(C)(C)/C=C/C(=O)/C(C)=C/CC1 [zerumbone]
[17]
  effect on Phase II gluthathione-S-transferases enzyme (in words): induce
CYP3A4
  effect on metabolism mediated by CYP3A4 (in words): moderately inhibit
UGT2B7 [7]; rat liver microsomes (pooled), pH 7.4, probe zidovudine (ZDV), at or below its Km, IC50 for inhibition of ZDV glucuronidation in RLM, rat liver microsomes, ZDV as probe substrate, 1% (w/v) BSA
  IC50 at 90 min: 8.14 ± 2.12 µM
UGT2B7 [7]; rat liver microsomes (pooled), pH 7.4, probe zidovudine (ZDV), at or below its Km, concentration inhibiting ZDV glucuronidation in RLM higher than 50% (screening), screening at 1 µM, 10 µM and 100 µM
  IC50 at 90 min: < 100 µM
UGT2B7 [8]; [20]
  IC50: 4.57 ± 0.23 µM
UGT2B7 [8]; [21]
  IC50: < 100 µM

## O=c1c(O)c(-c2ccc(O)c(O)c2)oc2cc(O)cc(O)c12 [Quercetin, quercetin]
UGT nonspecific [9]
  UGT nonspecific, in vitro study: UGT nonspecific ↑ (mammalian cells)
UGT1A1 [10]
  UGT1A1, in vitro study: UGT1A1 ↓ (supersomes)
UGT1A1 [11]
  UGT1A1, in vitro study: UGT1A1 ↑ (mammalian cells)
UGT1A3
  UGT1A3, in vitro study: UGT1A3 ↓ (supersomes)
UGT1A6 [18]
  UGT1A6, in vitro study: UGT1A6 ↑ (mammalian cells)
UGT1A9; RLM
  UGT1A9, in vitro study: UGT1A9 ↓ (HLM, RLM, supersomes)
UGT2B17
  UGT2B17, in vitro study: UGT2B17 ↓ (supersomes)
UGT nonspecific [6]
  UGT nonspecific, in vivo/ex vivo study: UGT nonspecific ↑ (rat)

## C[C@@H]1[C@H]2c3cc4c(cc3O[C@@]35OCOC3=CC(=O)[C@H](C[C@H]1C)[C@@H]25)OCO4 [sauchinone]
UGT2B7 [19]
  effect on zidovudine (ZDV) concentration in mice blood (in words): elevated

## kaempferol-3-O-rutinoside [kaempferol-3-rutinoside]
UGT enzymes
  inhibition of UGT enzymes in HLM with 4MU as substrate (in words): did not significantly inhibit
